pIC50: −log10 of the molar value.
Legend:
[1] = 50% rabbit plasma at 37° C.
Procedure: To determine the stability of the FHA II peptide, the unmodified or the acetylated-amidated peptide were incubated in 50% rabbit plasma at 37° C.

Human neutrophils = experiment: Binding of 125I-Factor X to neutrophils
Procedure: Human Factor X (Sigma or Hematologic Technologies Inc.) was labeled with ^125 I using Iodogen (Pierce Chemical Co.) Human neutrophils were isolated from heparinized blood according to the manufacturer's specification using Neutrophil Isolation Medium (Cardinal Associates, Santa Fe, N.M.) and washed three times with 5 mM EDTA-phosphate-buffered saline (PBS), pH 7.2, at 4° C. To eliminate platelet contamination,neutrophils were incubated with autologous serum containing 5 mM EDTA for 30 mins. at 37° C., washed three times with ice-cold PBS, pH 7.2, and resuspended in RPMI 1640 tissue culture medium (Whittaker M. A. Bioproducts, Walkersville, Md.) at 4° C. Binding of ^125 I-Factor X to neutrophils was measured based on a method described by Altieri et al. (1991) Science 254: 1200-1202. Briefly, 200 μl of neutrophils (1.5×10^7 /ml) were supplemented with 17.5 μl of 50 mM CaCl2, stimulated with 3.5 μl of 100 μM NH2 -formyl-Met-Leu-Phe (Sigma), and mixed with 30 μl of 10.3 μg/ml ^125 I-Factor X and 100 μl of 1.75 mM of peptide. Buffer alone and a peptide of scrambled sequence served as controls in each of the 3 experiments. After incubation for 20 mins. at room temperature, neutrophil-bound ^125 I-Factor X was separated from unbound ^125 I-Factor X by centrifugation of 300 μl aliquots through 50 μl of a mixture of Hi phenyl silicone oil DC 550 and methyl silicone oil DC 200 5:1 (Nye Inc. Specialty Lubricants, New Bedford, Mass.) at 12,000×g for 2 mins. Aliquots of the supernatant (cell free ^125 I-Factor X) and the cell pellet (cell bound ^125 I-Factor X) were counted in a gamma-counter. Nonspecific binding (~50,000 cpm) was determined by adding a 100 fold excess of unlabeled Factor X, and subtracted from total radioactivity (~500,000 cpm for controls).

[2] = tested on: Recognition of C3bi by 12.1F9; experiment: Peptide inhibition of recognition of C3bi by 12.1F9; format: binding

Substance | concentration over time in plasma [1] | inhibition of 125I-Factor X binding to neutrophils (Human neutrophils; peptides 0.5 mM, native FHA 0.3 μM, mAb IB4 100 μg/ml) [%] | pIC50 (Human neutrophils; read-out: IC50 of inhibition of 125I-Factor X binding) | block of binding of 12.1F9 to C3bi [2] | Adherence index ([2]; peptides 50 μg/ml, normalized to a control value of 100)
Ac-ETKEVDG-NH2 [Acetyl/Amide-FHA II] | remained unchanged over 48 hours |  |  |  | 
Filamentous hemagglutinin [native FHA] |  | 70±4 | 7.00 | blocked binding almost completely | 16 ± 16

Source: US5932217A, “Peptides which inhibit adhesion between leukocytes and endothelial cells” (priority 1994, dated 1999)
